Data on one substance can be found in US5399552A, “Antibiotic peptides bearing aminoalkylthioether moieties” (Merck & Co, Inc, priority 1991, dated 1995).

The subject of assay [1] is Pneumocystis carinii. In words: Pneumocystis carinii pneumonia in immunosuppressed rats, lung cysts. Format: in vivo, Sprague-Dawley rats. Particulars: sc twice daily for four days, compared with untreated or solvent controls. How it is done:
The compounds of the present invention may also be useful for inhibiting or alleviating Pneumocystis carinii infections in immune compromised patients. […] Before drug treatment, two rats are sacrificed to confirm the presence of Pneumocystis carinii pneumonia (PCP). Five rats (weighing approximately 150 grams) are injected twice daily for four days subcutaneously (sc) with Compound A-Ia in 0.25 ml of vehicle (distilled water). A vehicle control is also carried out. All animals continue to receive dexasone in the drinking water and low protein diet during the treatment period. At the completion of the treatment, all animals are sacrificed, the lungs are removed and processed, and the extent of disease determined by microscopic examination of stained slides for the presence of cysts.

In assay [2] the test system is C. pseudotropicalis MY 1100. In words: Minimum fungicidal concentration (MFC), microbroth dilution assay in YNBD. Format: cell-based, Candida pseudotropicalis. Particulars: 35° C. 24 hours, then SDA 24 hours at 28° C. How it is done:
(§1) The compounds of the present invention are active against many fungi and particularly against Candida species. The antifungal properties may be illustrated with the minimum fungicidal concentration (MFC) determination against certain Candida organisms in a microbroth dilution assay carried out in a Yeast Nitrogen Base (Difco) medium with 1% dextrose (YNBD).
(§2) In carrying out the assay, Compound A-Ia was solubilized in 10 percent dimethyl sulfoxide (DMSO) and diluted to 2560 μg/ml. The compound was then diluted to 256 μg/ml in YNBD.
(§3) The yeast cultures, maintained on Sabouraud dextrose agar were transferred to YN broth (Difco) and incubated overnight at 35° C. with shaking (250 rpm). After incubation, each culture was diluted in sterile water to yield a final concentration of 1-5×10^6 colony forming units (CFU)/ml.
(§4) 96-well microplates were inoculated using a MIC-2000 (Dynatech) which delivers […] per well yielding a final inoculum per well of 1.5-7.5×10^3 cells. The microplates were incubated at 35° C. for 24 hours. The minimum inhibitory concentrations (MICs) were recorded as the lowest concentrations of drug showing no visible growth.
(§5) After recording the MIC, the plates were shaken to resuspend the cells. […] The inoculated trays were incubated 24 hours at 28° C. and then read for minimum fungicidal concentration (MFC). […]
In general terms: Dilution methods test growth across graded concentrations, often in twofold steps.

For assay [3], the system named is C. Albicans MY 1730. Described as above. It is filed as cell-based, Candida albicans. Particulars: 35° C. 24 hours, then SDA 24 hours at 28° C. The protocol:
as §1, §2, §3, §4
(§6) After recording the MIC, the plates were shaken to resuspend the cells. Thereafter, 1.5 μl samples from the wells in the 96-well microplate were transferred to a single well tray containing Sabouraud dextrose agar. The inoculated trays were incubated 24 hours at 28° C. and then read for minimum fungicidal concentration (MFC). MFC is defined as the lowest concentration of drug showing no growth or less than 4 colonies per spot.

The test system of assay [4] is C. Albicans MY 1028. Described as above. Particulars: 35° C. 24 hours, then SDA 24 hours at 28° C. It is filed as cell-based, Candida albicans. How it is done:
as §1, §2, §3, §4, §6

The subject of assay [5] is C. Albicans MY 1055. The description is as above. It is filed as cell-based, Candida albicans. Particulars: 35° C. 24 hours, then SDA 24 hours at 28° C. How it is done: as §1, §2, §3, §4, §6
Assay [6] concerns C. tropicalis MY 1012. The assay is described as above. Format: cell-based, Candida tropicalis. Particulars: 35° C. 24 hours, then SDA 24 hours at 28° C. The protocol: as §1, §2, §3, §4, §5
Assay [7] has as its system C. parapsilosis MY 1010. Described as above. Format: cell-based, Candida parapsilosis. The note with it: 35° C. 24 hours, then SDA 24 hours at 28° C. The protocol: as §1, §2, §3, §4, §5
Assay [8] has as its system Candida albicans MY 1055. Put plainly: In vivo effectiveness in mice infected I.V. with Candida albicans, kidney CFU. Also on record: species or system female DBA/2 mice. Particulars: 0.4 mg/kg I.P. twice daily for four consecutive days; kidneys of DBA/2 mice after seven days. The protocol:
Growth from an overnight SDA culture of Candida albicans MY 1055 was suspended in sterile saline and the cell concentration determined by hemacytometer count and the cell suspension adjusted to 3.75 x 10^5 cells/mi. Then 0.2 milliliter of this suspension was administered I.V. in the tail vein of mice so that the final inoculum was 7.5×10^4 cells/mouse.
The assay then was carried out by administering aqueous solutions of Compound A-Ia at various concentrations intraperitoneally (I.P.), twice daily (b.i.d.) for four consecutive days to 18 to 20 gram female DBA/2 mice, which previously had been infected with Candida albicans in the manner described above. Distilled water was administered I.P. to C. albicans challenged mice as controls. After seven days, the mice were sacrificed by carbon dioxide gas, paired kidneys were removed aseptically and placed in sterile polyethylene bags containing 5 milliters of sterile saline. The kidneys were homogenized in the bags, serially diluted in sterile saline and aliquots spread on the surface of SDA plates. The plates were incubated at 35° C. for 48 hours and yeast colonies were enumerated for determination of colony forming units (CFU) per gram of kidneys. Compound A-Ia gave 99 percent reduction of recoverable Candida CFUs at 0.4 mg/kg I.P. twice daily for four consecutive days.

A word on the MFC: it is the lowest tested concentration that kills the fungus rather than only halting it. Low readings indicate more potent killing, high ones less potent killing. Turning to “1-[4-hydroxy-5-aminoethylthio-N^2 -(10,12-dimethyl-1-oxotetradecyl)ornithine]-5-(3-hydroxyglutamine)-6-(3-hydroxyproline)echinocandin B trifluoroacetate [Compound A-Ia]”, the “extent of disease: cysts in stained slides from the lungs” value in assay [1] is recorded as “prevention of or reduction of cysts”. Moreover, the MFC in assay [2] is 0.25 µg/mL; in assay [3] it was 0.125 µg/mL; in assay [4] it was 0.5 µg/mL; in assay [5] it was 0.5 µg/mL; in assay [6] it was 0.125 µg/mL; in assay [7], 0.25 µg/mL. Also, the “reduction of recoverable Candida CFUs” value in assay [8] is given as 99%.
